Measured values reported in patent US10316017B2, “COT modulators and methods of use thereof” (Gilead Sciences, Inc., priority 2015, dated 2019).
Where two headings read alike, the source gives them in different places.

What was measured:
[1] = molecular target: T1, human Cot catalytic domain (30-397 amino acids) (Homo sapiens, UniProt P41279); assay: High Throughput Cot Biochemical Assay (KinEASE TR-FRET); conditions: Cot KinEASE TR-FRET, 400 μM ATP; read-out: IC50 HTRF
T1 construct: Purified recombinant human Cot catalytic domain (30-397 amino acids) was purchased from Cama Biosciences; purchased Cama Biosciences (so in the source)
T1 sequence (P41279 30-397): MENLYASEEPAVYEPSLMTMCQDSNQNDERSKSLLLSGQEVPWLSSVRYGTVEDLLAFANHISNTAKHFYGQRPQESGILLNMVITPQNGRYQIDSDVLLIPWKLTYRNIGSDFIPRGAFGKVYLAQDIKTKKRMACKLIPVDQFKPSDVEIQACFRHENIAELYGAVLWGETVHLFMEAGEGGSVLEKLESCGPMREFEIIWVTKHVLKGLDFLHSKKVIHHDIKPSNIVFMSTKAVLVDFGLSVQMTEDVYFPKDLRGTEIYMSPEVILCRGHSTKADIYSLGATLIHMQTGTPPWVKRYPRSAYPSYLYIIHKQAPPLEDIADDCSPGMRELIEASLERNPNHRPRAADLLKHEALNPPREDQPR
Summary of the method: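 TR-FRET (KinEASE) read-out: Eu-labelled phospho-specific antibody binds XL665-tagged STK3 peptide (1 μM) phosphorylated by 5 nM human Cot kinase domain (residues 30-397). Reaction at 400 μM ATP, pH 7.0 MOPS buffer with 10 mM MgOAc, 1 mM DTT and 0.1% DMSO.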

[2] = tested on: TNFα production in LPS-stimulated human monocytes; assay: Cot Monocyte TNFα Cell Based Assay; conditions: LPS-stimulated human monocytes, TNFα TR-FRET, read-out: EC50 TNF
Summary of the method: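 TNFα release quantified by two-antibody TR-FRET, normalised to unstimulated (0%) and LPS-stimulated (100%) wells. Cells got a 1 h compound exposure at 37° C in 0.5% DMSO before 4 h challenge with 50 pg/ml LPS, at 5,000 cells/well.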

IC50 [1] | EC50 ([2]; Homo sapiens, Monocyte) | EC50 [2] | SMILES
2 nM | 42 nM |  | Cc1c(-c2ccnnc2)cccc1[C@H](Nc1cc(Cl)c2ncc(C#N)c(NCC(C)(C)C)c2c1)c1cn(C2(C(F)F)CC2)nn1 [Example 1123, (S)-8-chloro-6-(((1-(1-(difluoromethyl)cyclopropyl)-1H-1,2,3-triazol-4-yl)(2-methyl-3-(pyridazin-4-yl)phenyl)methyl)amino)-4-(neopentylamino)quinoline-3-carbonitrile]
4 nM | 138 nM |  | CC(C)(C)CNc1c(C#N)cnc2c(C#N)cc(N[C@@H](c3ccccc3)c3cn(C45CC(C4)C5)nn3)cc12 [Example 1124, (S)-6-(((1-(bicyclo[1.1.1]pentan-1-yl)-1H-1,2,3-triazol-4-yl)(phenyl)methyl)amino)-4-(neopentylamino)quinoline-3,8-dicarbonitrile]
4 nM | 51 nM |  | Cc1c(C#N)cccc1[C@H](Nc1cc(C#N)c2ncc(C#N)c(NCC(C)(C)C(F)(F)F)c2c1)c1cn(C2(C(F)F)CC2)nn1 [Example 1125, (S)-6-(((3-cyano-2-methylphenyl)(1-(1-(difluoromethyl)cyclopropyl)-1H-1,2,3-triazol-4-yl)methyl)amino)-4-((3,3,3-trifluoro-2,2-dimethylpropyl)amino)quinoline-3,8-dicarbonitrile]
5 nM |  | 66 nM | Cc1c(C#N)cccc1[C@H](Nc1cc(C#N)c2ncc(C#N)c(NCC(C)(C)C(F)(F)F)c2c1)c1cn(C2(C(F)F)CC2)nn1 [Example 1126, (S)-6-(((3-cyano-2-methylphenyl)(1-(1-(difluoromethyl)cyclopropyl)-1H-1,2,3-triazol-4-yl)methyl)amino)-4-((3,3,3-trifluoro-2,2-dimethylpropyl)amino)quinoline-3,8-dicarbonitrile]
13 nM | 221 nM |  | Cc1c(F)cccc1[C@H](Nc1cc(C#N)c2ncc(C#N)c(NCC(C)(C)C)c2c1)c1cn(C2(C(F)(F)F)CC2)nn1 [Example 1127, (S)-6-(((3-fluoro-2-methylphenyl)(1-(1-(trifluoromethyl)cyclopropyl)-1H-1,2,3-triazol-4-yl)methyl)amino)-4-(neopentylamino)quinoline-3,8-dicarbonitrile]
9 nM | 307 nM |  | CC(C)(C)CNc1c(C#N)cnc2c(C#N)cc(N[C@@H](c3cccc(C4(C#N)CC4)c3)c3cn(C4(C(F)(F)F)CC4)nn3)cc12 [Example 1128, (S)-6-(((3-(1-cyanocyclopropyl)phenyl)(1-(1-(trifluoromethyl)cyclopropyl)-1H-1,2,3-triazol-4-yl)methy;)amino)-4-(neopentylamino)quinoline-3,8-dicarbonitrile]
5 nM | 148 nM |  | CC(C)(C)CNc1c(C#N)cnc2c(C#N)cc(N[C@@H](c3cccc(C4(C#N)CC4)c3)c3cn(C45CC(C4)C5)nn3)cc12 [Example 1129, (S)-6-(((1-(bicyclo[1.1.1]pentan-1-yl)-1H-1,2,3-triazol-4-yl)(3-(1-cyanocyclopropyl)phenyl)methyl)amino)-4-(neopentylamino)quinoline-3,8-dicarbonitrile]
10 nM | 103 nM |  | CC(C)(C)CNc1c(C#N)cnc2c(C#N)cc(N[C@@H](c3ccc(F)cc3)c3cn(C45CC(C4)C5)nn3)cc12 [Example 1130, (S)-6-(((1-(bicyclo[1.1.1]pentan-1-yl)-1H-1,2,3-triazol-4-yl)(4-fluorophenyl)methyl)amino)-4-(neopentylamino)quinoline-3,8-dicarbonitrile]
3 nM | 38 nM |  | Cc1c(-c2cnco2)cccc1[C@H](Nc1cc(C#N)c2ncc(C#N)c(NCC(C)(C)C)c2c1)c1cn(C2(C(F)(F)F)CC2)nn1 [Example 1131, (S)-6-(((2-methyl-3-(oxazol-5-yl)phenyl)(1-(1-(trifluoromethyl)cyclopropyl)-1H-1,2,3-triazol-4-yl)methyl)amino)-4-(neopentylamino)quinoline-3,8-dicarbonitrile]
8 nM | 175 nM |  | Cc1c(-c2cc[nH]n2)cccc1[C@H](Nc1cc(C#N)c2ncc(C#N)c(NCC(C)(C)C)c2c1)c1cn(C2(C(F)(F)F)CC2)nn1 [Example 1132, (S)-6-(((2-methyl-3-(1H-pyrazol-3-yl)phenyl)(1-(1-(trifluoromethyl)cyclopropyl)-1H-1,2,3-triazol-4-yl)methyl)amino)-4-(neopentylamino)quinoline-3,8-dicarbonitrile]
4 nM | 27 nM |  | Cc1c(-c2cn[nH]c2)cccc1[C@H](Nc1cc(C#N)c2ncc(C#N)c(NCC(C)(C)C)c2c1)c1cn(C2(C(F)(F)F)CC2)nn1 [Example 1133, (S)-6-(((2-methyl-3-(1H-pyrazol-4-yl)phenyl)(1-(1-(trifluoromethyl)cyclopropyl)-1H-1,2,3-triazol-4-yl)methyl)amino)-4-(neopentylamino)quinoline-3,8-dicarbonitrile]
2 nM | 57 nM |  | Cc1c(-c2ccnnc2)cccc1[C@H](Nc1cc(C#N)c2ncc(C#N)c(NCC(C)(C)C)c2c1)c1cn(C2(C(F)(F)F)CC2)nn1 [Example 1134, (S)-6-(((2-methyl-3-(pyridazin-4-yl)phenyl)(1-(1-(trifluoromethyl)cyclopropyl)-1H-1,2,3-triazol-4-yl)methyl)amino)-4-(neopentylamino)quinoline-3,8-dicarbonitrile]
2 nM | 44 nM |  | Cc1c(-c2cncn2C)cccc1[C@H](Nc1cc(C#N)c2ncc(C#N)c(NCC(C)(C)C)c2c1)c1cn(C2(C(F)(F)F)CC2)nn1 [Example 1135, (S)-6-(((2-methyl-3-(1-methyl-1H-imidazol-5-yl)phenyl)(1-(1-(trifluoromethyl)cyclopropyl)-1H-1,2,3-triazol-4-yl)methyl)amino)-4-(neopentylamino)quinoline-3,8-dicarbonitrile]
4 nM | 128 nM |  | Cc1c(-c2cccnc2)cccc1[C@H](Nc1cc(C#N)c2ncc(C#N)c(NCC(C)(C)C)c2c1)c1cn(C2(C(F)(F)F)CC2)nn1 [Example 1136, (S)-6-(((2-methyl-3-(pyridin-3-yl)phenyl)(1-(1-(trifluoromethyl)cyclopropyl)-1H-1,2,3-triazol-4-yl)methyl)amino)-4-(neopentylamino)quinoline-3,8-dicarbonitrile]
5 nM | 70 nM |  | Cc1c(-c2ccncc2)cccc1[C@H](Nc1cc(C#N)c2ncc(C#N)c(NCC(C)(C)C)c2c1)c1cn(C2(C(F)(F)F)CC2)nn1 [Example 1137, (S)-6-(((2-methyl-3-(pyridin-4-yl)phenyl)(1-(1-(trifluoromethyl)cyclopropyl)-1H-1,2,3-triazol-4-yl)methyl)amino)-4-(neopentylamino)quinoline-3,8-dicarbonitrile]
4 nM | 61 nM |  | Cc1c(-c2cnn(C)c2)cccc1[C@H](Nc1cc(C#N)c2ncc(C#N)c(NCC(C)(C)C)c2c1)c1cn(C2(C(F)(F)F)CC2)nn1 [Example 1138, (S)-6-(((2-methyl-3-(1-methyl-1H-pyrazol-4-yl)phenyl)(1-(1-(trifluoromethyl)cyclopropyl)-1H-1,2,3-triazol-4-yl)methyl)amino)-4-(neopentylamino)quinoline-3,8-dicarbonitrile]
